Data on 45 molecules can be found in patent EP4671247A1, “SUBSTITUTED PYRAZOLOPYRIMIDINE COMPOUND AND PHARMACEUTICAL USE THEREOF” (Japan Tobacco Inc., priority 2023, dated 2024).

Where two headings read alike, the source gives them in different places.

The assay addresses T1, NLRP3 inflammasome (Homo sapiens, UniProt Q96P20).
T1 construct: host or cells: THP1-Null cells (PMA-differentiated, LPS-primed, nigericin-stimulated)
Description: Evaluation of NLRP3 inflammasome inhibitory activity (inhibition of IL-1β production in LPS/Nigericin-stimulated THP1-Null cells, AlphaLISA). Type of assay: cell-based. To be noted: PMA, 1 µg/mL Lipopolysaccharides 3 hours, Nigericin 7.5 µmol/L 1.5 hours. How it is done:
The NLRP3 inflammasome inhibitory activity of test compounds were evaluated on the basis of the inhibitory activity of the IL-1β production in THP1-Null cells (Product Number: thp-null, InvivoGen).
The supernatant of the culture was removed, and thereto was added media for assay (25 µL/well) containing 1 µg/mL Lipopolysaccharides (Product Number: L2654, Sigma-Aldrich (registered trademark)). […] The supernatant of the culture was removed. […] A solution containing a test compound (20 µL/well) was added to test compound-setting wells. […] The supernatant of the culture was cryonically stored (set at -20°C) until measurement of IL-1β.
The amount of IL-1β in the culture supernatant was quantitated with AlphaLISA (registered trademark) Human IL-1β Detection Kit (Product Number: AL220C, Perkin Elmer). Fluorescence intensity was measured with a microplate reader EnSpier (Model number: 2300-00J, Perkin Elmer) or EnSight (Model number: HH34000000, Perkin Elmer) according to procedure manuals attached thereto. Inhibition rates of the test compound-setting wells were calculated on the basis of 100% for the blank-setting wells and 0% for the control-setting wells.

Setting [1] is: IL-1β production in THP1-Null cells, read-out: IC50.
[2] abbreviates: IL-1β production in THP1-Null cells.
Where [3] appears, read: IC50, IL-1β production in THP1-Null cells.

T1 sequence (Q96P20 whole entry): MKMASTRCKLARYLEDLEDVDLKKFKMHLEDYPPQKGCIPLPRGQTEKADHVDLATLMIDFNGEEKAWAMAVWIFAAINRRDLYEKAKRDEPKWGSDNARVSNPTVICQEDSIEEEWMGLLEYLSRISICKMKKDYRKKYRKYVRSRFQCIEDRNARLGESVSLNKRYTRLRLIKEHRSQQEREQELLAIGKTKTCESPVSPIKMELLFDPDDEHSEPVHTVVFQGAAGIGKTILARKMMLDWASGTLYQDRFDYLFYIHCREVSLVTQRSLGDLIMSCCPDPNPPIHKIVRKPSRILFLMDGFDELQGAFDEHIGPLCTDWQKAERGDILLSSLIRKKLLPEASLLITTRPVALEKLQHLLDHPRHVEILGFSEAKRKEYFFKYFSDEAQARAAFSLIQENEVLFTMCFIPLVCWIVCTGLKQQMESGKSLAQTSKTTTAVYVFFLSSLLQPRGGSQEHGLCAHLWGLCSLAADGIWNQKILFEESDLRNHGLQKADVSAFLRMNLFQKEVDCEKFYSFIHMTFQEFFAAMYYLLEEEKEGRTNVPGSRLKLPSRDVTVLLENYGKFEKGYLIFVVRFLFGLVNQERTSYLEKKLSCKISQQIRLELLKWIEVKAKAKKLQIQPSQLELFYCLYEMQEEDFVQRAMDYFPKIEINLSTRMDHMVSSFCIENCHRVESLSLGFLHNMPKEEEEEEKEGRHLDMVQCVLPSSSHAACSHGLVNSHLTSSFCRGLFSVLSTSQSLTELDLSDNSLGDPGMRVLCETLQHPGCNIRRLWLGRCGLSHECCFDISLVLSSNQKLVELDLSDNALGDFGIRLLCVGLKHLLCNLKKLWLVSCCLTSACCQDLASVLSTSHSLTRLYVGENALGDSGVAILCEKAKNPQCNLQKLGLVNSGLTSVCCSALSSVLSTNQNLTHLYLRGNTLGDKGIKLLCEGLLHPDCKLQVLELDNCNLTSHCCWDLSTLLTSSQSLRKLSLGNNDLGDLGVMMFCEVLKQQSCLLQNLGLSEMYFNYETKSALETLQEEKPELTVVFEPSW

Consider `Cc1cc(Br)cc(C)c1-n1cc2c(=O)[nH]c(C3COCCO3)nc2n1` (racemic) [Example 28], for which the IC50 under setting [1] came out at 0.19 µM.

For the molecule `Cc1cc(C2CC2)cc(C)c1-n1cc2c(=O)[nH]c(C3CCOC3)nc2n1` (racemic) [Example 29], under setting [2], the 50% inhibitory concentration (IC50) was found to be 0.009 µM.

Regarding `Cc1ccc(-n2cc3c(=O)[nH]c(C4CCCO4)nc3n2)c(C)c1` (racemic) [Example 31], the IC50 under setting [1] is 0.79 µM.

Regarding `Cc1ccc(-n2cc3c(=O)[nH]c(C4CCS(=O)(=O)C4)nc3n2)c(C)c1` (racemic) [Example 32], under setting [1], the IC50 amounted to 0.27 µM.

As for `Cc1ccc(-n2cc3c(=O)[nH]c(C4CCCOC4)nc3n2)c(C)c1` (racemic) [Example 34], under setting [1], the IC50 came to 0.2 µM.

In the case of `Cc1ccc(-n2cc3c(=O)[nH]c(C4CCO4)nc3n2)c(C)c1` (racemic) [Example 35], under setting [1], the concentration for half-maximal inhibition (IC50) amounted to 2.1 µM.

With `Cc1cc(C2CC2)cc(C)c1-n1cc2c(=O)[nH]c(C3CCO3)nc2n1` (racemic) [Example 36], the concentration for half-maximal inhibition (IC50) under setting [1] amounted to 0.15 µM.

For the molecule `Cc1ccc(-n2cc3c(=O)[nH]c(C4CCCCO4)nc3n2)c(C)c1` (racemic) [Example 40], the IC50 under setting [1] was 0.43 µM.

For the molecule `COC(C)c1nc2nn(-c3c(C)cc(C4CC4)cc3C)cc2c(=O)[nH]1` (racemic) [Example 41], the half-inhibitory concentration (IC50) under setting [1] is 0.093 µM.

For `Cc1cc(Br)cc(C)c1-n1cc2c(=O)[nH]c(COC3CCCOC3)nc2n1` (racemic) [Example 56], the IC50 under setting [1] is 0.35 µM.

On to `Cc1cc(C2CC2)cc(C)c1-n1cc2c(=O)[nH]c(COC3CCCOC3)nc2n1` (racemic) [Example 57], for which the IC50 under setting [1] was found to be 0.34 µM.

`Cc1cc(OC(F)F)cc(C)c1-n1cc2c(=O)[nH]c(C3CCOC3)nc2n1` (racemic) [Example 63]: under setting [1], the IC50 stood at 0.045 µM.

`COC1(c2nc3nn(-c4c(C)cc(Br)cc4C)cc3c(=O)[nH]2)CCOC1` (racemic) [Example 86]: the IC50 under setting [1] turned out to be 0.35 µM.

Consider `Cc1cc(C2CC2)cc(C)c1-n1cc2c(=O)[nH]c(C3CC3F)nc2n1` (racemic) [Example 93], for which, under setting [1], the half-maximal inhibitory concentration (IC50) was found to be 0.008 µM.

Regarding `Cc1cc(Br)cc(C)c1-n1cc2c(=O)[nH]c(C3CC4CCN3CC4)nc2n1` (racemic) [Example 100], the IC50 under setting [3] worked out at 0.054 µM.

For the molecule `Cc1cc(Br)cc(C)c1-n1cc2c(=O)[nH]c(CC3COCCO3)nc2n1` (racemic) [Example 113], under setting [1], the IC50 was found to be 0.14 µM.

With `Cc1cc(C2CC2)cc(C)c1-n1cc2c(=O)[nH]c(C3CC3(F)F)nc2n1` (racemic) [Example 114], the IC50 under setting [1] came out at 0.017 µM.

Take `Cc1cc(C2CC2)cc(C)c1-n1cc2c(=O)[nH]c(C34CCOCC3C4(F)F)nc2n1` (racemic) [Example 115]: the half-maximal inhibitory concentration (IC50) under setting [1] was determined as 0.43 µM.

Regarding `Cc1cc(Br)cc(C)c1-n1cc2c(=O)[nH]c(C34CCC(CO3)C4)nc2n1` (racemic) [Example 117], the concentration for half-maximal inhibition (IC50) under setting [1] turned out to be 0.24 µM.

Under setting [3], `Cc1cc(C2CC2)cc(C)c1-n1cc2c(=O)[nH]c(C3CC4CCN3CC4)nc2n1` (racemic) [Example 119] gave an IC50 of 0.031 µM.

In the case of `COCC1C(c2nc3nn(-c4c(C)cc(C5CC5)cc4C)cc3c(=O)[nH]2)C1(F)F` (racemic) [Example 120], under setting [1], the IC50 came to 0.04 µM.

Regarding `Cc1cc(C2CC2)cc(C)c1-n1cc2c(=O)[nH]c(C(C)O)nc2n1` (racemic) [Example 123], the IC50 under setting [2] is 0.023 µM.

As for `Cc1cc(C2CC2)cc(C)c1-n1cc2c(=O)[nH]c(C3CC3CO)nc2n1` (racemic) [Example 124], under setting [1], the IC50 came to 0.008 µM.

`Cc1cc(C(C)(F)F)cc(C)c1-n1cc2c(=O)[nH]c(C3CC3(F)F)nc2n1` (racemic) [Example 125]: the IC50 under setting [1] was 0.024 µM.

For the molecule `Cc1cc(Br)cc(C)c1-n1cc2c(=O)[nH]c(CC(O)C(F)(F)F)nc2n1` (racemic) [Example 126], the IC50 under setting [1] came out at 0.024 µM.

Turning to `COC(Cc1nc2nn(-c3c(C)cc(Br)cc3C)cc2c(=O)[nH]1)C(F)(F)F` (racemic) [Example 127], the IC50 under setting [1] came to 0.073 µM.

Turning to `Cc1cc(C2CC2)cc(C)c1-n1cc2c(=O)[nH]c(C(C)F)nc2n1` (racemic) [Example 128], the IC50 under setting [1] was determined as 0.044 µM.

As for `Cc1cc(OC(F)F)cc(C)c1-n1cc2c(=O)[nH]c(C3CC3(F)F)nc2n1` (racemic) [Example 133], under setting [1], the half-maximal inhibitory concentration (IC50) turned out to be 0.041 µM.

Turning to `CCC(O)c1nc2nn(-c3c(C)cc(C4CC4)cc3C)cc2c(=O)[nH]1` (racemic) [Example 134], the IC50 under setting [1] amounted to 0.024 µM.

For the molecule `Cc1cc(Br)cc(C)c1-n1cc2c(=O)[nH]c(C(C)O)nc2n1` (racemic) [Example 137], the IC50 under setting [1] came to 0.024 µM.

As for `Cc1cc(Br)cc(C)c1-n1cc2c(=O)[nH]c(C(O)C(F)(F)F)nc2n1` (racemic) [Example 138], under setting [1], the IC50 stood at 0.12 µM.

With `Cc1cc(Br)cc(C)c1-n1cc2c(=O)[nH]c(C(O)C(F)F)nc2n1` (racemic) [Example 139], under setting [1], the IC50 worked out at 0.036 µM.

On to `Cc1cc(Br)cc(C)c1-n1cc2c(=O)[nH]c(C(O)C3CC3)nc2n1` (racemic) [Example 140], for which the IC50 under setting [1] was 0.046 µM.

Take `Cc1cc(OC(F)F)cc(C)c1-n1cc2c(=O)[nH]c(C(C)O)nc2n1` (racemic) [Example 141, (RS)-2-{4-(difluoromethoxy)-2,6-dimethylphenyl}-6-(1-hydroxyethyl)-2,5-dihydro-4H-pyrazolo[3,4-d]pyrimidin-4-one]: the half-maximal inhibitory concentration (IC50) under setting [1] turned out to be 0.061 µM.

Consider `Cc1cc(C(C)(F)F)cc(C)c1-n1cc2c(=O)[nH]c([C@H]3C[C@@H]3F)nc2n1` (racemic) [Example 142, 2-[4-(1,1-difluoroethyl)-2,6-dimethylphenyl]-6-[(1RS,2SR)-2-fluorocyclopropyl]-2,5-dihydro-4H-pyrazolo[3,4-d]pyrimidin-4-one], for which, under setting [1], the 50% inhibitory concentration (IC50) stood at 0.017 µM.

For the molecule `COCC(O)Cc1nc2nn(-c3c(C)cc(C4CC4)cc3C)cc2c(=O)[nH]1` (racemic) [Example 143], the IC50 under setting [1] was found to be 0.086 µM.

`Cc1cc(C(C)(F)F)cc(C)c1-n1cc2c(=O)[nH]c(C(C)O)nc2n1` (racemic) [Example 144, (RS)-2-{4-(1,1-difluoroethyl)-2,6-dimethylphenyl}-6-(1-hydroxyethyl)-2,5-dihydro-4H-pyrazolo[3,4-d]pyrimidin-4-one]: the half-inhibitory concentration (IC50) under setting [1] was 0.058 µM.

Take `Cc1cc(Br)cc(C)c1-n1cc2c(=O)[nH]c(C3CC3C(=O)N(C)C)nc2n1` (racemic) [Example 149]: the half-inhibitory concentration (IC50) under setting [1] was 0.022 µM.

Turning to `Cc1cc(Br)cc(C)c1-n1cc2c(=O)[nH]c(C3CC3C(N)=O)nc2n1` (racemic) [Example 150], the 50% inhibitory concentration (IC50) under setting [1] stood at 0.018 µM.

`Cc1cc(Br)cc(C)c1-n1cc2c(=O)[nH]c(C3CC3C#N)nc2n1` (racemic) [Example 151]: the 50% inhibitory concentration (IC50) under setting [1] turned out to be 0.017 µM.

In the case of `Cc1cc(C2CC2)cc(C)c1-n1cc2c(=O)[nH]c([C@@H]3C[C@H]3C#N)nc2n1` (racemic) [Example 152], half-maximal inhibition under setting [3] (IC50) was put at 0.012 µM.

`Cc1cc(C2CC2)cc(C)c1-n1cc2c(=O)[nH]c(C(O)C(F)F)nc2n1` (racemic) [Example 158] gave a half-maximal inhibitory concentration (IC50) under setting [2] of 0.026 µM.

As to `Cc1cc(Br)cc(C)c1-n1cc2c(=O)[nH]c(C3CCOCCO3)nc2n1` (racemic) [Example 160], the IC50 under setting [1] was 0.037 µM.

As to `Cc1cc(C2CC2)cc(C)c1-n1cc2c(=O)[nH]c(C3CCOCCO3)nc2n1` (racemic) [Example 163, (RS)-2-(4-cyclopropyl-2,6-dimethylphenyl)-6-(1,4-dioxepan-5-yl)-2,5-dihydro-4H-pyrazolo[3,4-d]pyrimidin-4-one], the IC50 under setting [1] was determined as 0.023 µM.

As for `Cc1cc(OC(F)F)cc(C)c1-n1cc2c(=O)[nH]c(C(O)C(F)F)nc2n1` (racemic) [Example 167], the IC50 under setting [1] stood at 0.23 µM.

Usually IC50 stands for the concentration needed to halve the response being measured.
